Experimental findings from paper PMC10892818, “An Antiherpesviral Host-Directed Strategy Based on CDK7 Covalently Binding Drugs: Target-Selective, Picomolar-Dose, Cross-Virus Reactivity” (Pharmaceutics, 2024) are described below.

Assay type in all cases: cell-based, human cytomegalovirus
The subject of experiment [1] is HCMV UL97-C480F. Briefly: HCMV reporter-based antiviral assay, drug-resistant mutant. As to conditions: Human betaherpesvirus 5, read-out: Measured EC50 ref. drugs UL97-C480F. The method, then: (§1) For the infection experiments, stocks of the following recombinant, reporter protein-expressing viruses (GFP or YFP (i.e., green or yellow fluorescent protein, respectively)) were propagated (in permissive cells), determined in their infectious titers performing the respective reporter assays, stored by aliquots at −80 °C, and used for the assessment of antiviral drug activities: human cytomegalovirus HCMV AD169-GFP (HFFs); murine cytomegalovirus MCMV C3X-GFP (MEFs); guinea pig cytomegalovirus GPCMV v403-GFP (GPEFs); human herpesvirus type 6A HHV-6A U1102-GFP (J-Jhan); herpes simplex virus type 1 HSV-1 166v VP22-GFP (HFFs); varicella zoster virus VZV Oka-GFP (HFFs); Epstein-Barr virus EBV Akata-GFP (Akata-BX1-GFP carrier cells; kindly provided by Lindsey Hutt-Fletcher and Rona Scott, Dept. Microbiol. Immunol., LSUHSC Univ., Shreveport, LA, USA); and Kaposi’s sarcoma-associated herpesvirus KSHV rKSHV.219-GFP/RFP (in iSLK.219 carrier cells).
(§2) For HCMV AD169-GFP infection, the replication assay was based on a seeding of 225,000 HFFs or 13,500 HFFs in 12 well or 96 well plates, respectively, which were then inoculated with HCMV AD169-GFP [55] at an MOI of 0.25 GFP-FU/mL/7 d for a 90 min period of inoculum–cell adsorption, followed by a medium refreshment including the immediate addition of antiviral compounds. At 7 d p.i., the infected HFFs were either directly fixed with 10% formalin for 20 min at 4 °C (when used for infection in the 96 well format) or lysed and transferred to 96 well plates (when used for infection in the 12 well format) so that the reporter of viral replication could be quantified by GFP fluorometry using a Perkin Elmer Victor X4 Multimode Plate Reader (Perkin Elmer, Waltham, MA, USA).
(§3) Due to the fact that the HCMV-encoded protein kinase pUL97 represents a functional and structural ortholog of the host CDKs (vCDK/pUL97), the viral mutants of ORF-UL97 were assessed for sensitivity against CDK7 inhibitors.

The test system of experiment [2] is HCMV UL97-C592G. The experiment is described as above. The following applies: Human betaherpesvirus 5, read-out: Measured EC50 ref. drugs UL97-C592G. The method, then:
as §1, §2, §3

Experiment [3] deals with HCMV UL97-C603W. Described as above. The following applies: Human betaherpesvirus 5, read-out: Measured EC50 ref. drugs UL97-C603W. The method, then: as §1, §2, §3
The test system of experiment [4] is HCMV UL97-F342S. The description is as above. As to conditions: Human betaherpesvirus 5, read-out: Measured EC50 ref. drugs UL97-F342S. The method, then: as §1, §2, §3
Experiment [5] concerns HCMV UL97-H411Y. The experiment is described as above. As to conditions: Human betaherpesvirus 5, read-out: Measured EC50 ref. drugs UL97-H411Y. The method, then: as §1, §2, §3
Experiment [6] relates to HCMV UL97-H469V. The experiment is described as above. As to conditions: Human betaherpesvirus 5, read-out: Measured EC50 ref. drugs UL97-H469V. The method, then:
as §1, §2, §3

The test system of experiment [7] is HCMV UL97-H520Q. Described as above. The following applies: Human betaherpesvirus 5, read-out: Measured EC50 ref. drugs UL97-H520Q. The method, then:
as §1, §2, §3

Experiment [8] has as its system HCMV UL97-L397R. The experiment is described as above. As to conditions: Human betaherpesvirus 5, read-out: Measured EC50 ref. drugs UL97-L397R. The method, then:
as §1, §2, §3

Experiment [9] concerns HCMV UL97-M460I. Described as above. The following applies: Human betaherpesvirus 5, AD169, read-out: Measured EC50 ref. drugs UL97-M460I. The method, then: as §1, §2, §3
Experiment [10] relates to HCMV UL97-T409M. Described as above. The following applies: Human betaherpesvirus 5, read-out: Measured EC50 ref. drugs UL97-T409M. The method, then: as §1, §2, §3
In experiment [11] the test system is GCV- or MBV-resistant HCMV variants (ORF-UL97 mutants). As to the kind of experiment: HCMV reporter-based antiviral assays, series of GCV- or MBV-resistant variants. The method, then:
as §1, with “Immunol., LSUHSC Univ., Shreveport, LA, USA); and Kaposi’s sarcoma-associated herpesvirus KSHV rKSHV.219-GFP/RFP (in iSLK.219 carrier cells).” left out
Due to the fact that the HCMV-encoded protein kinase pUL97 represents a functional and structural ortholog of the host CDKs (vCDK/pUL97), the viral mutants of ORF-UL97 were assessed for sensitivity against CDK7 inhibitors. […] These HCMVs (i.e., UL97 mutants C592G, H520Q (GCV-res.) L397R (MBV-res.) M460I, T409M, H411Y, C480F, F432S, C603W (GCV- and MBV-double res.), and H469V (not determined yet)) were used for comparative analysis in HCMV reporter-based antiviral assays.

Molecules are shown by their SMILES.

Take `Nc1nc(O)c2ncn(COC(CO)CO)c2n1` [GCV, ganciclovir]: the EC50 (in general, the concentration giving half of the maximal effect) in [1] came out at 10500 ± 2200 nM; in [2], 4670 ± 1100 nM; in experiment [3] it was 9870 ± 1000 nM; in [4], 17100 ± 1500 nM; in experiment [5], 3760 ± 600 nM; in experiment [6], 1220 ± 200 nM. Moreover, the half-maximal effective concentration (EC50) in experiment [7] amounted to 10700 ± 700 nM; in experiment [8], 2240 ± 500 nM; in experiment [9], 9240 ± 3300 nM; in experiment [10], 1980 ± 200 nM.

Consider `Nc1ccn(C[C@@H](CO)OCP(=O)(O)O)c(=O)n1` [CDV, cidofovir], for which the EC50 is 400 nM in experiment [1]; 400 nM in experiment [2]; 410 nM in [3]; 190 nM in [4]; 420 nM in [5]; 180 nM in experiment [6]. The EC50 was 100 nM in experiment [7], 340 nM in [8], 70 nM in [9] and 260 nM in [10]. Moreover, in experiment [11], the “drug resistance / sensitivity of the GCV- and MBV-resistant HCMVs” value is on record as “all viruses showed sensitivity”.
